Experimental data reported in patent publication EP3952873B1 (priority 2019, dated 2020).
Entries after “also recorded” stand apart in the source; their conditions may differ.

Tests used:
[1] = target: T1, GHB high-affinity binding site/CaMK2a (Rattus norvegicus, UniProt P11275); assay: Rat brain membrane [3H]NCS-382 binding assay; conditions: for Ki: 16 nM [3H]NCS-382, rat cortical synaptic membranes, pH 6.0, 0-4 °C
T1 construct: rat (Sprague-Dawley) cortical synaptic membranes (P2 synaptosomes) were prepared; from tissue; host or cells: rat (Sprague-Dawley) cortical synaptic membranes (P2 synaptosomes)
Experimental: According to previously published protocols, rat (Sprague-Dawley) cortical synaptic membranes (P2 synaptosomes) were prepared and stored at -20 °C until the day of assay (Wellendorph et al., 2005). Membranes were then washed three times with binding buffer (50 mM potassium phosphate buffer pH 6.0). The binding protocol was performed in 96-well microplates. In brief, compounds were incubated with 16 nM [^3H]NCS-382 radioligand and membranes for 60 min at 0-4 °C, filtered through GF/C filter plates (PerkinElmer) using a 96-well harvester (Packard), rapidly washed three times with ice-cold binding buffer, and filter plates dried. CPM values were determined using liquid scintillation counting in a TopCount NXT Microplate Scintillation & Luminescence Counter (PerkinElmer). Curves were generated using non-linear regression (GraphPad Prism 7, GraphPad Prism Software, San Diego, CA, USA).
JON-11, related analogues, and pro-JON-11(10) were tested in the [^3H]NCS-382 binding assay (Wellendorph et al., 2005).

[2] = type: in vitro ADME, mouse; conditions: plasma and liver microsomes; converted to parent JON-11 instantly
Experimental: (§1) Metabolic stability analysis was performed on a Bruker Avance Ultra High Performance Liquid Chromatography (UHPLC) (Bruker Daltonik, Bremen, Germany) equipped with a CTC-PAL-xt autosampler with cooled sample compartments (10 °C) and a column oven held at 40 °C. The UHPLC eluate was directed to a Bruker Evoq Elite triple quad-ropole MS equipped with a heated electrospray ionization source operated in positive ionization mode. Separation of 15 µL sample was obtained using a Phenomenex (Phenomenex, Torrance, CA, USA) Kinetex XB-C18 column (50 mm × 2.1 mm i.d., 1.7 µm particle size) equipped with a guard column. The analytes were separated using a solvent system consisting of water/acetonitrile (95:5, v/v) (eluent A) and water/acetonitrile (5:95, v/v) (eluent B); both acidified with 0.1% formic acid. The eluent flow rate was maintained at 0.4 mL/min with the following gradient elution profile: 0 min: 0% B; 5 min: 100% B; 6 min: 100% B, followed by three min equilibration at 0% B. Two ion transitions were monitored for all analytes and internal standard.
The mouse liver microsome assay was performed by transferring 25 µL of a 20 µM solution of the test compound (0.5% DMSO), dissolved in potassium phosphate monobasic buffer (pH 7.4) containing 3 mM MgCl2, to 9 wells in a microtiter plate. To each well, […] of a 0.5 mg/mL mouse liver (Sigma Aldrich) in buffer was added, and the microtiter plate were pre-incubated for 5 min at 37 °C in a plate shaker at 600 rpm. After pre-incubation, 50 µL 37 °C NADPH regenerating system, consisting of 2 mM NADP+, 10mM glucose-6-phosphate, and 2 U/mL glucose-6-phosphate dehydrogenase dissolved in buffer, was added to start the assay. In triplicates, immediately after adding the NADPH solution, 75 µL was transferred to an Eppendorf tube, containing […] ice-cold acetonitrile with 400 ng/mL internal standard (7). Similarly, samples were prepared after 30 min and 60 min incubation at 37 °C. The samples were vortexed for 30 seconds and centrifuged at 16,000 × g for 10 minutes before analyzing the supernatant. The individual analyte responses were normalized to the internal standard. Diazepam was used as positive control.
The mouse […] assay was performed by transferring 75 µL of a 10 µM solution of the test compound (0.5% DMSO), dissolved in PBS buffer (pH 7.4), to 9 wells in a microtiter plate. To each well, 75 µL mouse plasma, harvested from in-house mice into K2-EDTA tubes and centrifuged at 1,600 × g, was added. […]
(§2) The metabolic stabilities of JON-11 and the prodrugs 1a, 8-12, 19 and 20 were determined in vitro in rat plasma and rat liver microsomes. […] The corresponding loss of prodrug compounds and formation of parent drug JON-11 was determined by UHPLC-MS.

[3] = system: GHB binding sites i.e. CaMK2a; conditions: previously published; cited from earlier work
[4] = Mouse plasma assay (metabolic stability); type: in vitro ADME; conditions: rat plasma as printed
Experimental: as §1, with “standard. […]” for “standard.”
as §2

[5] = in vivo; set-up: species or system mice; conditions: C57BL/6JRj, mouse, ip, male mice, dose 10 mg/kg i.p., 30 min, read-out: B/P ratio
Experimental: To evaluate the ability of pro-JON-11 (10) and JON-11 to penetrate the blood-brain barrier, a brain-to-plasma distribution ratio (B/P ratio) was obtained. All subjects were male C57BL/6JRj mice (24-26 g, Janvier Labs, France) housed in groups of three-four with ad libitum access to food and water. The mice were maintained under diurnal conditions (12-h light/dark cycle with lights on at 7 AM) in a temperature (22±1 °C) and humidity-controlled room (50±10%). Ethical permission for the procedures used in this in vivo study was granted by the Danish Animal Experiments Inspectorate.
Compounds were dissolved in PEG-400 (Sigma) at 20% of the final required volume. The final volume was then made up by 10% (w/v) hydroxypropyl-beta-cyclodextrin (Sigma Aldrich) in sterile saline. The solution was sonicated for 5 min. The JON-11 solution was pH-adjusted to 7.4 with 0.2% 2M NaOH.
Both compounds were injected i.p. at a dose of 10 mg/kg (n=3 for each compound). […] After 30 min, the animals were sacrificed by decapitation, trunk blood was collected in EDTA-coated tubes and the brain was gently removed. Blood and tissues were temporarily stored on ice until plasma and brain homogenate preparation. Blood plasma was separated from cells by centrifugation for 10 min at 1,500 x g at 4 °C and plasma harvested. […]
Plasma and brain exposure of JON-11 and pro-JON-11 were evaluated in male mice. […]

[6] = type: in vitro ADME, mouse; conditions: rat liver microsomes as printed
Experimental: as §1, with “standard. […]” for “standard.”
as §2

[7] = target: T2, LAT-1 (Homo sapiens, UniProt Q01650); assay: LAT-1 [3H]leucine uptake in HEK293T cells; type: cell-based; conditions: HEK293T cells endogenously expressing LAT-1
T2 construct: endogenous in cells; host or cells: HEK293T
Text: (§3) To test selected prodrugs for substrate activity at LAT-1, we characterised the uptake and efflux of [^3H]leucine in the presence of compounds. For this purpose we used HEK293T cells endogenously expressing a functionally competent LAT-1, and performed assays according to Chien et al., 2018 to measure A) uptake and B) relative exchange efflux rate (L-leucine as control).

[8] = target: T2, LAT-1; assay: LAT-1 relative exchange efflux of [3H]leucine in HEK293T cells; type: cell-based; conditions: HEK293T cells endogenously expressing LAT-1
Text: as §3

T1 sequence (P11275 whole entry): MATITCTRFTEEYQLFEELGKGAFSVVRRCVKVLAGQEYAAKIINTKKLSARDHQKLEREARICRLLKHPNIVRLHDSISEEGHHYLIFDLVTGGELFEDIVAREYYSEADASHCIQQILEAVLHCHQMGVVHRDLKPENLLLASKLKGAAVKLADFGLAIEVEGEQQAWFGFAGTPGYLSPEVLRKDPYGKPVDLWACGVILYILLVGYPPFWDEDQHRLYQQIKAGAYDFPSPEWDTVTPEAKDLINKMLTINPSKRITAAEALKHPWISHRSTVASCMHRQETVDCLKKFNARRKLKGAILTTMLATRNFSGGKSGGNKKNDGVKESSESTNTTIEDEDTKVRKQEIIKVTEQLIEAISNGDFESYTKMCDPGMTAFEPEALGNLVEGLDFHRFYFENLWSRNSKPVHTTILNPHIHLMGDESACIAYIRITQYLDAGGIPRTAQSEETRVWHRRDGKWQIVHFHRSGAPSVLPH
T2 sequence (Q01650 whole entry): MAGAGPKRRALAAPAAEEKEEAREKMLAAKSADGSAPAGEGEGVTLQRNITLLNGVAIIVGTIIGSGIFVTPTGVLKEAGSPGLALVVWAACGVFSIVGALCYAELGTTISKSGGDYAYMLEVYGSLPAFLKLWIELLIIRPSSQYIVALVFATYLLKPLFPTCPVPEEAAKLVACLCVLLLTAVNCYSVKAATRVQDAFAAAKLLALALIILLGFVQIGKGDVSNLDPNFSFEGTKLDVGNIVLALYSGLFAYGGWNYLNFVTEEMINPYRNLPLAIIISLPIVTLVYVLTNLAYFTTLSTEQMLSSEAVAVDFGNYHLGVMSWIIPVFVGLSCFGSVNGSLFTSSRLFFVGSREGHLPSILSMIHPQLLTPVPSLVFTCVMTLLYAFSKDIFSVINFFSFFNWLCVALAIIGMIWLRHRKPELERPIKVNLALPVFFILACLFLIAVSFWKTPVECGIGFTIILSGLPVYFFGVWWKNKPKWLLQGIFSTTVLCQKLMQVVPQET
T2 sequence (P08195 102-630 partner): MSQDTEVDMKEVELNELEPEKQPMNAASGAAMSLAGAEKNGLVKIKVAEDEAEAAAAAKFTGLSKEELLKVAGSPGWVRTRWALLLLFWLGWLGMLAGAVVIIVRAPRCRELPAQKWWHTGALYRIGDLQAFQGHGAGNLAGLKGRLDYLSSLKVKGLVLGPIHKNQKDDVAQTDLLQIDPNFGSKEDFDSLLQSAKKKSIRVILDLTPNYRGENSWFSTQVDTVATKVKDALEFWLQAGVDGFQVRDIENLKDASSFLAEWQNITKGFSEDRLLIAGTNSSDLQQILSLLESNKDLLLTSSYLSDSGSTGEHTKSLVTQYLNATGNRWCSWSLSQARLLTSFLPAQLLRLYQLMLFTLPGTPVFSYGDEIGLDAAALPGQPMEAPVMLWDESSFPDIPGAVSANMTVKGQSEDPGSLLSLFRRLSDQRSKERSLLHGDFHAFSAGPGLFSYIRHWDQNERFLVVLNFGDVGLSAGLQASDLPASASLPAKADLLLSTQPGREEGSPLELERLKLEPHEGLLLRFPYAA

O=C(O)Cc1cn2nc(-c3ccc(Cl)c(Cl)c3)ccc2n1 [compound 7, 2-(6-(3,4-Dichlorophenyl)imidazo[1,2-b]pyridazin-2-yl)acetic acid]
Ki [1]: 190 nM

CC(=O)OCOC(=O)Cc1cn2nc(-c3ccc(Cl)cc3)ccc2n1 [compound 8, Acetoxymethyl 2-(6-(4-chlorophenyl)imidazo[1,2-b]pyridazin-2-yl)acetate]
chemical/metabolic stability of prodrug [2]: highly chemical/metabolic unstable

O=C(O)Cc1cn2nc(-c3cccc(OCc4ccccc4)c3)ccc2n1 [compound 3]
Ki [1]: 510 nM

O=C(O)C1=CC(O)CC1 (stereo not shown) [HOCPCA, 3-hydroxycyclopent-1-enecarboxylic acid]
affinity relative to GHB [3]: 27 times

O=C(O)Cc1cn2nc(-c3cccc(Cl)c3)ccc2n1 [compound 2, 2-(6-(3-Chlorophenyl)imidazo[1,2-b]pyridazin-2-yl)acetic acid]
Ki [1]: 230 nM

CC(C)(C)C(=O)OCOC(=O)Cc1cn2nc(-c3ccc(Cl)cc3)ccc2n1 [compound 9, (2-(6-(4-Chlorophenyl)imidazo[1,2-b]pyridazin-2-yl)acetoxy)methyl pivalate]
chemical/metabolic stability of prodrug [2]: highly chemical/metabolic unstable

CC(C)(C)OC(=O)Cc1cn2nc(-c3ccc(Cl)cc3)ccc2n1 [compound 10, tert.Butyl 2-(6-(4-chlorophenyl)imidazo[1,2-b]pyridazin-2-yl)acetate]
half-life at 5 µM ([4]; pH 7.4): ~1 h
stability in plasma [4]: fair stability
Kp at 30 min [5]: 2.24
stability in liver microsomes [6]: high stability
displacement of radioligand binding ([1]; [3H]NCS-382, concentrations up to 10 µM): failed to displace radioligand binding

CCOC(=O)Cc1cn2nc(-c3ccc(Cl)cc3)ccc2n1 [1a, ethyl 2-(6-(4-chlorophenyl)imidazo[1,2-b]pyridazin-2-yl)acetate]
chemical/metabolic stability of prodrug [2]: highly chemical/metabolic unstable

O=C(O)Cc1cn2nc(-c3ccc(OCc4ccccc4)cc3)ccc2n1 [compound 4, 2-(6-(4-(benzyloxy)phenyl)imidazo[1,2-b]pyridazin-2-yl)acetic acid]
Ki [1]: 2200 nM

O=C(O)CCC(O)c1ccc(OCc2ccccc2)cc1 (stereo not shown) [BnOPh-GHB]
affinity relative to GHB [3]: 39 times

COc1ccc(-c2ccc3nc(CC(=O)O)cn3n2)cc1 [compound 6, 2-(6-(4-Methoxyphenyl)imidazo[1,2-b]pyridazin-2-yl)acetic acid]
Ki [1]: 830 nM

N[C@@H](Cc1cccc(NC(=O)Cc2cn3nc(-c4ccc(Cl)cc4)ccc3n2)c1)C(=O)O [compound 11, (S)-2-amino-3-(3-(2-(6-(4-chlorophenyl)imidazo[1,2-b]pyridazin-2-yl)acetamido)phenyl)propanoic acid]
competition with [3H]leucine uptake at LAT-1 [7]: LAT1 inhibitor; also recorded: competes
exchange for [3H]leucine (relative exchange efflux) [8]: cannot be exchanged

N[C@@H](Cc1ccc(NC(=O)Cc2cn3nc(-c4ccc(Cl)cc4)ccc3n2)cc1)C(=O)O [compound 12, (S)-2-amino-3-(4-(2-(6-(4-chlorophenyl)imidazo[1,2-b]pyridazin-2-yl)acetamido)phenyl)propanoic acid]
competition with [3H]leucine uptake at LAT-1 [7]: not

COc1cccc(-c2ccc3nc(CC(=O)O)cn3n2)c1 [compound 5, 2-(6-(3-Methoxyphenyl)imidazo[1,2-b]pyridazin-2-yl)acetic acid]
Ki [1]: 440 nM
